Test results from publication PMC7327383, “The affinity and selectivity of α‐adrenoceptor antagonists, antidepressants, and antipsychotics for the human α1A, α1B, and α1D‐adrenoceptors” (Pharmacology Research & Perspectives, 2020).
Where two headings read alike, the source gives them in different places.

Assays:
[1] = target: T1, human α1A-adrenoceptor (Homo sapiens, UniProt P35348); assay: [3H]prazosin whole-cell competition binding, CHO-α1A cells; details: for Kd: read-out: Log KD α1A (converted); for selectivity α1A vs 1D / selectivity α1A vs α1B: ratio, 1 = no selectivity for a subtype over another; for selectivities α1A vs α1B / selectivities α1A vs α1D: selectivity ratio, 1 = no selectivity for a given receptor subtype over another
T1 construct: CHO cells stably expressing either the full‐length human α1A, α1B, or α1D‐adrenoceptor
T1 sequence (P35348 1-466): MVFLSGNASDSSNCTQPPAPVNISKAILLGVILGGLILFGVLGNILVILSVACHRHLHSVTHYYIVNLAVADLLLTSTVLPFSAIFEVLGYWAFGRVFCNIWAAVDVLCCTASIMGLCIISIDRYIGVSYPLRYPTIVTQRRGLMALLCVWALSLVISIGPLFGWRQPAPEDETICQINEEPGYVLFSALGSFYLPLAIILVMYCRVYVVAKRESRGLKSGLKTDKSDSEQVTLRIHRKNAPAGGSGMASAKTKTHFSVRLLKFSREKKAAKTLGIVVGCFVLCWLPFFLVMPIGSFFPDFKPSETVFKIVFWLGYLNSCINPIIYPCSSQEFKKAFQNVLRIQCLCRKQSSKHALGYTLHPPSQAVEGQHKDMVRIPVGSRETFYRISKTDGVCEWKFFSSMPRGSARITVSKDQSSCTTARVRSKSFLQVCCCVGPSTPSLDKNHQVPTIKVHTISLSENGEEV

[2] = target: T2, full-length human α1D-adrenoceptor (Homo sapiens, UniProt P25100); assay: [3H]prazosin whole-cell competition binding, CHO-α1D cells; details: for Log KD α1D site 2: low-affinity component of two-component curve
T2 sequence (P25100 1-572): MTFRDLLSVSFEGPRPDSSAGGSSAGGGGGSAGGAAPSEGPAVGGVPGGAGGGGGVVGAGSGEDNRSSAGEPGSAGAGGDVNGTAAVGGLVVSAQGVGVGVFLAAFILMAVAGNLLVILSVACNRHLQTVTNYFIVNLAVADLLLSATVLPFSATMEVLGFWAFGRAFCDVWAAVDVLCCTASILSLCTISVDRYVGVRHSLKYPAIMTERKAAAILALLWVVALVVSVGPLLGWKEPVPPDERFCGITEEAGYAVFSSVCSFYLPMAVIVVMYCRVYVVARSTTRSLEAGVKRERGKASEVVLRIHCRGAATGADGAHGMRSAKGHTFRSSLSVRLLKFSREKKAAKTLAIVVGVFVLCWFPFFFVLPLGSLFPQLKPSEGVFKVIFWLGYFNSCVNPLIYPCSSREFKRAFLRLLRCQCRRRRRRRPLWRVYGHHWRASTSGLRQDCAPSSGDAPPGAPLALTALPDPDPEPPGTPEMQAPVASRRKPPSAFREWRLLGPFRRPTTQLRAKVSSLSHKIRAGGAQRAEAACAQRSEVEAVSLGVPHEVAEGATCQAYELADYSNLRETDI

[3] = target: T3, human α1B-adrenoceptor (Homo sapiens, UniProt P35368); assay: [3H]prazosin whole-cell competition binding, CHO-α1B cells; details: for Kd: read-out: Log KD α1B (converted); for Selectivity ratio α1B vs α1D: ratio of KD values, higher α1B affinity, 1.0 under vs = none
T3 construct: CHO cells stably expressing either the full‐length human α1A, α1B, or α1D‐adrenoceptor
T3 sequence (P35368 1-520): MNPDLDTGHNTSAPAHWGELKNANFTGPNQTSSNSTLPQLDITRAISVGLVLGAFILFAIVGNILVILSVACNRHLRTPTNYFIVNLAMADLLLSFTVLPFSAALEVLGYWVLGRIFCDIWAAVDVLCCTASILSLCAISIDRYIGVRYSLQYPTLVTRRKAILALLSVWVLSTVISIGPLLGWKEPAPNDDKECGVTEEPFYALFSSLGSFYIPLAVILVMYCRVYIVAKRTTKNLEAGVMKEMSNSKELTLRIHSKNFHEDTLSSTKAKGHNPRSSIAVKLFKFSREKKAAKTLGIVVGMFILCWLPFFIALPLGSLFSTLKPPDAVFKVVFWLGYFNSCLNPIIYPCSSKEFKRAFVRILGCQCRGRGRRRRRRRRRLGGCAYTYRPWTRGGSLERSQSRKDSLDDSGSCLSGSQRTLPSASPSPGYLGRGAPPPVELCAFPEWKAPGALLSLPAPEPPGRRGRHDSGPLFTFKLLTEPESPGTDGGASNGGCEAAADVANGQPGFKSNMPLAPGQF

[4] = single-component inhibition curve, given as log KD (negative), mean ± SE mean
[5] = ratio of KD values, higher α1A affinity, 1.0 under vs = none
[6] = ratio of KD values, printed under α1A = higher α1A affinity, 1.0 under vs = none
[7] = Log KD α1D, single-component inhibition curve, given as log KD (negative), mean ± SE mean
[8] = ratio of KD values, higher α1D affinity (site 1 KD)
[9] = ratio, 1 = no selectivity for a subtype over another
[10] = log KD from 3H-prazosin whole cell binding, CHO cells, mean ± s.e.mean
[11] = low-affinity component of two-component curve, control
[12] = share of site 1 in the two-component inhibition curve
[13] = two-component inhibition curve, proportion of site 1
[14] = percentage of inhibition through first component, control

| Compound | Log KD α1A [1, 4] | Log KD α1D [2, 4] | Selectivity ratio α1A vs α1D [1, 5] [fold] | Selectivity ratio α1A vs α1B [1, 6] [fold] | Kd [1, 4] [nM] | Kd [2, 7] [nM] | Selectivity ratio α1B vs α1D [2, 8] [fold] | selectivity α1B vs α1D [3, 9] | Kd [3, 4] [µM] | Selectivity ratio α1B vs α1D [3] [fold] | Log KD α1B [3, 4] | other results |
| --- | --- | --- | --- | --- | --- | --- | --- | --- | --- | --- | --- | --- |
| CN1[C@H]2C[C@H](OC(=O)[C@H](CO)c3ccccc3)C[C@@H]1[C@@H](O)C2 [Anisodamine] | −5.21 ± 0.03 | −4.21 ± 0.05 | – | – | – | – | – | – | – | – | – | Log KD α1B (apparent) ([3]; app: top concentration inhibited most but not all specific binding, curve extrapolated): −3.45 ± 0.04^app |
| COc1ccccc1N1CCN(CC(O)COc2cccc3ccccc23)CC1 (centres unmarked) [Naftopidil] | – | – | 8.1 | 14 | 10.7 | 87.1 | 1.7 | 1.7 | 0.151 | – | – | – |
| CN(CCCN1c2ccccc2CCc2ccccc21)CC(=O)c1ccc(Cl)cc1 [Lofepramine] | – | – | 37 | 32 | 115 | 4270 | – | – | 3.63 | 1.2 | – | – |
| COC1(C2=NCCN2)COc2ccccc2O1 (centres unmarked) [RX 821002] | – | – | – | – | – | – | – | 1.4 | – | – | – | Log KD α1A [1, 10]: -6.51 ± 0.09; selectivity α1A vs 1D [1]: 16; selectivity α1A vs α1B [1]: 11; Log KD α1D [2, 10]: -5.31 ± 0.13; Log KD α1B [3, 10]: -5.46 ± 0.06 |
| COc1ccccc1N1CCN(CCCNc2cc(=O)n(C)c(=O)n2C)CC1 [Urapidil] | – | – | 6.9 | 51 | 61.7 | 427 | 7.4 | 7.4 | 3.16 | – | – | – |
| O=C1Cc2cc(CCN3CCN(c4nsc5ccccc45)CC3)c(Cl)cc2N1 [Ziprasidone] | – | – | 34 | 11 | 1.86 | 63.1 | – | – | 0.02 | 3.2 | – | – |
| ClCCN(Cc1ccccc1)Cc1ccccc1 [Dibenamine] | – | – | 3.5 | 22 | – | – | 6.3 | 6.3 | – | – | – | Log KD α1A site 1 ([1]; high-affinity component of two-component curve, control (no thiosulphate)): −7.91 ± 0.06; Log KD α1A site 2 [1, 11]: −5.32 ± 0.08; % site 1, α1A [1, 12]: -7.91 ± 0.06 -5.32 ± 0.08 83.0 ± 1.8% site 1; % site 1, α1A [1, 13]: -7.91 ± 0.06 -5.32 ± 0.08 83.0 ± 1.8% site 1; Log KD α1D site 1 ([2]; high-affinity component of two-component curve, control, used for selectivity): −7.37 ± 0.15; Log KD α1D site 2 ([2]; control): −5.00 ± 0.14; % site 1 α1D [2, 13]: -7.37 ± 0.15 -5.00 ± 0.14 47.8 ± 3.2% site 1; Log KD α1B site 1 ([3]; high-affinity component of two-component curve, control): −6.57 ± 0.07; Log KD α1B site 2 [3, 11]: −4.66 ± 0.06; % site 1, α1B [3, 12]: -6.57 ± 0.07 -4.66 ± 0.06 67.6 ± 2.6% site 1; % site 1, α1B [3, 13]: -6.57 ± 0.07 -4.66 ± 0.06 67.6 ± 2.6% site 1 |
| CN[C@H]1CC[C@@H](c2ccc(Cl)c(Cl)c2)c2ccccc21 [Sertraline] | – | – | – | – | 1910 | 2450 | – | – | 3.55 | – | – | Selectivity ratio α1A vs α1B [1]: 1.9 fold; Selectivity ratio α1A vs α1D [1]: 1.3 fold; Selectivity ratio α1B vs α1D [2]: 1.4 fold; selectivity α1B vs α1D [3]: 1.4 |
| CNCCCN1c2ccccc2CCc2ccc(Cl)cc21 [Norclomipramine] | −7.52 ± 0.08 | −5.84 ± 0.06 | 48 | 48 | – | – | – | – | – | 1.0 | −5.84 ± 0.04 | selectivity α1A vs 1D [1]: 48; selectivity α1A vs α1B [1]: 48; selectivities α1A vs α1B [1]: 48; selectivities α1A vs α1D [1]: 48 |
| CNCCCC1c2ccccc2C=Cc2ccccc21 [Protriptyline] | – | – | 16 | 13 | 214 | 3470 | – | – | 2.69 | 1.3 | – | – |
| N=C(CC(O)COc1ccccc1-c1ccccc1)N1CCCCC1 (centres unmarked) [AH11110A] | −6.48 ± 0.03 | −4.98 ± 0.06 | 32 | 6.8 | – | – | – | – | – | 4.7 | −5.65 ± 0.09 | – |
| CC(C)(C)NCC(O)COc1cccc2[nH]c(C#N)cc12 (centres unmarked) [Cyanopindolol] | – | – | 1.5 | 4.8 | 2570 | – | 3.1 | 3.1 | 12.3 | – | – | Kd [2]: 3980 nM |
| O=C1Nc2ccccc2C2=NC(CN3CCN(c4ccccc4)CC3)CN12 (centres unmarked) [2‐PMDQ] | −8.19 ± 0.09 | – | – | – | – | – | – | – | – | – | −6.95 ± 0.05 | % site 1 α1D [2, 14]: 57.6 ± 2.8% site 1 |
| CN1CCN(c2ccc(Nc3c4ccccc4nc4ccccc34)cc2)CC1 [JP1302] | −6.21 ± 0.04 | −5.58 ± 0.09 | – | – | – | – | – | – | – | – | −5.46 ± 0.02 | – |
| O=C1NCN(c2ccccc2)C12CCN(CC1COc3ccccc3O1)CC2 (centres unmarked) [Spiroxatrine] | – | – | – | 2.8 | 138 | – | 28 | 28 | 0.389 | – | – | selectivity α1A vs 1D [1]: 10; Kd ([2]; Log KD α1D site 1, high-affinity component of two-component curve, control, used for selectivity): 13.8 nM; Log KD α1D site 2 ([2]; control): −5.84 ± 0.31; % site 1 α1D [2, 14]: 61.9 ± 4.0% site 1; Selectivity ratio α1A vs α1D [2, 8]: 10 fold; % site 1 α1D [2, 13]: -7.86 ± 0.13 -5.84 ± 0.31 61.9 ± 4.0% site 1 |
| Cc1ccc(Sc2ccccc2N2CCNCC2)c(C)c1 [Vortioxetine] | – | – | 7.8 | 7.9 | 479 | 3720 | – | – | 3.8 | 1.0 | – | – |

Continued, in another order:

| Log KD α1A [1, 4] | Log KD α1D [2, 4] | Selectivity ratio α1A vs α1D [1, 5] [fold] | Selectivity ratio α1A vs α1B [1, 6] [fold] | Kd [1, 4] [nM] | Kd [2, 7] [nM] | Selectivity ratio α1B vs α1D [2, 8] [fold] | selectivity α1B vs α1D [3, 9] | Kd [3, 4] [µM] | Selectivity ratio α1B vs α1D [3] [fold] | Log KD α1B [3, 4] | Compound | other results |
| --- | --- | --- | --- | --- | --- | --- | --- | --- | --- | --- | --- | --- |
| −9.35 ± 0.08 | – | – | – | – | – | – | – | – | – | −8.15 ± 0.07 | COc1ccccc1N1CCN(CCN2C(=O)c3ccccc3C(C)(C)C2=O)CC1 [ARC239] | % site 1 α1D [2, 14]: 60.5 ± 1.4% site 1 |
| −5.75 ± 0.05 | −6.07 ± 0.11 | – | 5.8 | – | – | 12 | 12 | – | – | −4.99 ± 0.05 | CCS(=O)(=O)N1CCC[C@@H]2CN3CCc4cc(OC)ccc4[C@@H]3C[C@@H]21 [RS79948] | selectivity α1A vs 1D [1]: 2.1; Selectivity ratio α1A vs α1D [2, 8]: 2.1 fold |
| −6.57 ± 0.05 | −6.07 ± 0.07 | 3.1 | 3.1 | – | – | 1.0 | 1.0 | – | – | −6.08 ± 0.02 | COc1cccc2c1CCC[C@H]2CN(C)CCc1ccc2ccoc2c1.CS(=O)(=O)O [A80426] | selectivity α1A vs 1D [1]: 3.1; selectivity α1A vs α1B [1]: 3.1; selectivities α1A vs α1B [1]: 3.1; selectivities α1A vs α1D [1]: 3.1 |
| −6.51 ± 0.09 | −5.31 ± 0.13 | 16 | 11 | – | – | – | – | – | 1.4 | −5.46 ± 0.06 | COC1(C2=NCCN2)COc2ccccc2O1 (centres unmarked) [RX821002] | – |
